# Data from patent publication US6040300A, “Method of preventing colon cancer with vitamin D3 analogues” (Arch Development Corporation, priority 1995, dated 2000).
# Assay: Serum phosphorus (standard colorimetric method)
# Assay type: in vivo, Male albino Fisher-344 rats
# Conditions: for Serum Levels P: mean ± S.E.M.
# Text: Male albino Fisher-344 rats, initially weighing ~90-100 g, were used in these studies. On arrival, the animals were quarantined for 1 wk and then randomly divided into the following six test groups: groups 1 and 2, standard vitamin D-sufficient diet; groups 3 and 4, standard diet supplemented with RO24-5531 (2.50 nmol/kg of feed); and groups 5 and 6, standard vitamin D-sufficient diet. […] Next, the rats in groups 2,4 and 6 were given subcutaneous injections of azoxymethane (AOM, Sigma Chemical Co., St. Louis, Mo.), 15 mg/kg body wt once a wk for 2 wks, while the rats in groups 1,3 and 5 received AOM-vehicle (saline).
# Groups 1 and 2 were then maintained on the standard diet for an additional […]. Groups 3 and 4 were maintained on the RO24-5531 supplemented diets for the initial five wks and then switched to the standard diet without RO24-5531 for an additional 29 wks (initiation arm), whereas groups 5 and 6 were maintained on the standard diet without supplemental RO24-5531 for the initial five wks and then switched to the RO24-5531 supplemented diet for an additional 29 wks (post-initiation arm).
# All rats were sacrificed in the non-fasting state after 34 wks on these protocols between 9 a.m. and 11 a.m. and sera obtained for measurement of calcium, phosphate, 25(OH)D3 and 1α,25(OH)2 D3 levels. The rats' colons were removed, opened, washed with normal saline and examined macroscopically for the presence of tumors. Resected tumors were weighed, and were fixed in 10% buffered formalin for microscopic examination. After formalin fixation, tissue specimens were paraffin-embedded, sectioned, and stained with hematoxylin and eosin as described previously (Sitrin et al., 1991), for light microscopic examination. All specimens were evaluated by a pathologist who was unaware of the dietary or AOM treatment history. Macroscopic and microscopic lesions were classified as either benign (adenoma) or malignant (adenocarcinoma).
# Serum calcium and phosphorus were measured by standard colorimetric methods (Kessler and Wolfman, Clin. Chem. 10:686-703, 1964). Serum 25(OH)D3 levels were measured by radioimmunoassay, using a kit and procedure supplied by Incstar (Stillwater, Minn.). Serum 1α,25(OH)2 D3 levels were assayed by a non-equilibrium competitive protein-binding assay based on a calf thymus receptor, using a kit and procedure supplied by Incstar, as previously described (Sitrin et al., 1991).
# Results are expressed as means ±SE of n determinations. Data were analyzed by Fisher's exact test (two-tailed) or analysis of variance (ANOVA) as appropriate (Snedecor and Cochran, Statistical Methods, 1980). Values of p <0.05 were considered statistically significant.
structure (smiles),measurement,setting,value
"C=C1/C(=C\C=C2/CCC[C@]3(C)C([C@H](C)CC#CC(O)(C(F)(F)F)C(F)(F)F)=CC[C@@H]23)C[C@@H](O)C[C@@H]1O [RO24-5531, 26,26,26,27,27,27-hexafluoro-1α,25-dihydroxy-16-ene-23-yne-cholecalciferol]",Serum Levels P,"group 3: RO24-5531/SD, no AOM, n=10",10.2 ± 0.7 mg/dL
same,Serum Levels P,"group 4: RO24-5531/SD (initiation arm), AOM, n=5",9.9 ± 0.8 mg/dL
same,Serum Levels P,"group 5: SD/RO24-5531, no AOM, n=6",9.2 ± 0.3 mg/dL
same,Serum Levels P,"group 6: SD/RO24-5531 (post-initiation arm), AOM, n=11",9.0 ± 0.8 mg/dL
same,effect on serum levels of phosphorus,groups 4 and 6,"significantly altered the serum levels of calcium, phosphorus or 25(OH)D3"
